Results taken from US20190030053A1, “COMPOSITION FOR INCREASING EXPRESSION OF PGC-1alpha” (BENEBIOSIS CO., LTD., priority 2016, published 2019).

Experiments:
[1] = test system: PGC-1α and related genes; experiment: Gene expression in brain and hippocampus of Alzheimer's disease models; format: in vivo, mouse; settings: 3×Tg mice, oral 0.1 mg/kg/day, 10 weeks
Source text: In order to investigate the changes in gene expression and cognitive ability by the treatment with SL (3′-SL & 6′-SL) compositions in Alzheimer's brain disease models, 6-week-old mice were purchased from Central Lab Animal (Korea). Water was freely accessible, and a commercially available pellet feed (Dooyeul Biotech, Korea) was given for two weeks. At 8 weeks of age, the mice were divided into three groups (composed of eight mice for each group): Eight 8-week-old male c57/BL6 mice (normal mice; initial body weight, average 35.6±3.3 g) treated with a normal diet were used for a control group. […]
(§1) Sialyllactose or DW was orally administered daily. […] The dietary intake and body weight change were measured every 5 days. […]
The gene expression changes by the treatment with SL (3′-SL & 6′-SL) compositions were quantitatively compared in two main organs (brain and hippocampus) associated with bran diseases. […] RNA was extracted by TRIzol agent (Invitrogen). cDNA was synthesized by using RNA, which has been extracted as above and quantified, and a reverse transcription system (Promega, USA). The expression patterns of PGC-1α and related genes were measured by using pre-designed primers and probes (Applied Biosystems; PGC-1α, Mm00447181_m1, GAPDH, and Mm99999915_q1) for the synthesized cDNA and analysis targets (Fndc5, PGC-1α, Erra, UCP1, BDNF, SOD2, and GPX1). […]

[2] = test system: PGC-1α and related genes; experiment: Gene expression in brain and hippocampus of Parkinson's disease models; format: in vivo, rat; settings: 6-OHDA SD rats, oral 0.1 mg/kg/day
Source text: In order to investigate the changes in gene expression and behavior improvement by the treatment with SL (3′-SL & 6′-SL) compositions in Parkinson's brain disease models, 13-week-old normal SD rats and Parkinson's brain disease models were purchased from Central Lab Animal (Korea). Water was freely accessible, and a commercially available pellet feed (Dooyeul Biotech, Korea) was given for one week. At 14 weeks of age, the SD rats were divided into four groups (composed of 8 animals per group): Eight 14-week-old male SD rats (normal rats; initial body weight, average 355.6±32.3 g) treated with a normal diet were used for a control group. […]
as §1
The gene expression changes by the treatment with SL (3′-SL & 6′-SL) compositions were quantitatively compared in two main organs (brain and hippocampus) associated with bran diseases. RNA was extracted by TRIzol agent (Invitrogen). cDNA was synthesized by using RNA, which has been extracted as above and quantified, and a reverse transcription system (Promega, USA). The expression patterns of PGC-1α and related genes were measured by using pre-designed primers and probes (Applied Biosystems; PGC-1α, Mm00447181_m1, GAPDH, and Mm99999915_q1) for the synthesized cDNA and analysis targets (Fndc5, PGC-1α, Erra, UCP1, BDNF, SOD2, and GPX1). […]

Structure (SMILES)	expression levels of PGC-1α and related genes vs SL non-administration (Alzheimer's disease model) group [1]	expression levels of PGC-1α and related genes vs SL non-administration (Parkinson's disease model) group [2]	expression levels of PGC-1α and related genes vs normal control group [1]	expression levels of PGC-1α and related genes vs normal control group [2]
CC(=O)N[C@H]1[C@H]([C@H](O)[C@H](O)CO)O[C@@](O[C@H]2[C@@H](O)[C@@H](CO)O[C@@H](O[C@H]3[C@H](O)[C@@H](O)C(O)O[C@@H]3CO)[C@@H]2O)(C(=O)O)C[C@@H]1O (stereo partly drawn) [3′-SL, α-NeuNAc-(2→3)-β-D-Gal-(1→4)-D-Glc]	relatively low compared with 6′-SL	relatively low compared with 6′-SL	–	–
CC(=O)N[C@H]1[C@H]([C@H](O)[C@H](O)CO)O[C@@](OC[C@H]2O[C@@H](O[C@H]3[C@H](O)[C@@H](O)[C@H](O)O[C@@H]3CO)[C@H](O)[C@@H](O)[C@H]2O)(C(=O)O)C[C@@H]1O [6′-SL, α-NeuNAc-(2→6)-β-D-Gal-(1→4)-D-Glc]	very high	very high	somewhat lower	somewhat lower
